Results published in article PMC2064570 (The Journal of Cell Biology, 2006).
Values belong to the compound of their own block, whether it stands above or below them.

Columns and labels:
TbPTP1 [1] = biological target: T1, TbPTP1 (Trypanosoma brucei, UniProt Q38AT7); test: pNPP hydrolysis inhibition; type: biochemical; conditions: read-out: % inhibition at 10 μM
T1 sequence (Q38AT7 1-306): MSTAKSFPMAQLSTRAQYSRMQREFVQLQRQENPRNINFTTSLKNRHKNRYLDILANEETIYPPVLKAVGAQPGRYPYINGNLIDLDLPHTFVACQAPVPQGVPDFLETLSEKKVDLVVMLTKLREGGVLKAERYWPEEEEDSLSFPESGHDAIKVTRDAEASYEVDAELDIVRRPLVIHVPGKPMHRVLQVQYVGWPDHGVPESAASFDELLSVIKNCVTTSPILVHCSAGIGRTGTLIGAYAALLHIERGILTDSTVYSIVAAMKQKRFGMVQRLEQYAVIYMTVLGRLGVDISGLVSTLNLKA

TbPTP1 [2] = biological target: T1, TbPTP1; test: malachite green phosphate release, Lineweaver-Burk; type: biochemical; conditions: 50 mM Hepes, 150 mM NaCl, pH 7.0, 37 °C
TbPTP1 [3] = biological target: T1, TbPTP1; conditions: pNPP or pEGFR peptide as substrate

inhibition at 10 µM (TbPTP1 [1]): > 50%
Structure (SMILES): CCc1oc2cc(S(=O)(=O)Nc3ccc(S(=O)(=O)Nc4nccs4)cc3)ccc2c1C(=O)c1cc(Br)c(O)c(Br)c1 [BZ3, 3-(3,5-Dibromo-4-hydroxy-benzoyl)-2-ethyl-benzofuran-6-sulfonicacid-(4-(thiazol-2-ylsulfamyl)-phenyl)-amide]

Structure (SMILES): N[C@@H](COP(=O)(O)O)C(=O)O [pSer]
Km (TbPTP1 [2]): phospho-Tyr (pTyr), and phospho-Ser (pSer)

% inhibition at 1 mM (TbPTP1 [3]): 90%
Structure (SMILES): [O]=[V]([OH])([OH])[OH] [sodium orthovanadate]
